Each compound was assayed against T1, NAMPT (Homo sapiens, UniProt P43490) (assay: NAMPT Activity Assay (Abcam #ab221819)). Settings: purified NAMPT, percent inhibition from OD450 nm; compound concentration not given.
T1 construct: purchased Abcam ab221819
Format: biochemical
Summary of the method: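 Purified NAMPT preincubated with compound and Reaction Mix #1 at 30*C for 1 hr in a two-step colorimetric kit, followed by Reaction Mix #2. Absorbance at OD450 nm recorded over 5 minutes; percent inhibition relative to no-drug wells.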

T1 sequence (P43490 whole entry): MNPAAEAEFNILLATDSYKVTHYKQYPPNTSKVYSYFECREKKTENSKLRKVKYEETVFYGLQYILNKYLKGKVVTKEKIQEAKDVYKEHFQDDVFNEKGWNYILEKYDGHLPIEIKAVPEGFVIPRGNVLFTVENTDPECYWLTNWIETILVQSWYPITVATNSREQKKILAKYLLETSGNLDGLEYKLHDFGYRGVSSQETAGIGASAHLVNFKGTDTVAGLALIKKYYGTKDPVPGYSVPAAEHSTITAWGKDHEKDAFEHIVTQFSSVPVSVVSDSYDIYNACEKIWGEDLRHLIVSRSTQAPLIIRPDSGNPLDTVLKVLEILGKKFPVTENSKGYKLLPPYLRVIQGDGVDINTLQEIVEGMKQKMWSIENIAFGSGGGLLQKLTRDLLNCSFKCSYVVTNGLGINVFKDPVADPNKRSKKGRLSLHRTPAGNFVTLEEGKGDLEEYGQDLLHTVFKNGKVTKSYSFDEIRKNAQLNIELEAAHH

SMILES	NAMPT Inhibition Code*
CC(=O)N(CC1CC1)c1ccc(-c2ccc(C(=O)NCCCc3cn[nH]c3)cn2)cc1F [I-T2302, 6-[4-[acetyl(cyclopropylmethyl)amino]-3-fluoro-phenyl]-N-[3-(1H-pyrazol-4-yl)propyl]pyridine-3-carboxamide]	C (C = ≥66% inhibition)
CC(=O)N(CC1CC1)c1ccc(-c2ccc(NC(=O)C3CC3c3cccnc3)cn2)cc1Cl (stereo not shown) [I-T2289, N-[6-[4-[acetyl(cyclopropylmethyl)amino]-3-chloro-phenyl]-3-pyridyl]-2-(3-pyridyl)cyclo propanecarboxamide]	C (C = ≥66% inhibition)
CC(=O)N(CC1CC1)c1ccc(-c2ccc(C(=O)NCCCc3cc[nH]n3)cn2)cc1Cl [I-T2127, 6-[4-[Acetyl(cyclopropylmethyl)amino]-3-chloro-phenyl]-N-[3-(1H-pyrazol-3-yl)propyl]pyridine-3-carboxamide]	C (C = ≥66% inhibition)
CC(=O)N(CC1CC1)c1ccc(-c2ccc(C(=O)NCc3cccnn3)cn2)cc1Cl [I-T2146, 6-[4-[Acetyl(cyclopropylmethyl)amino]-3-chloro-phenyl]-N-(pyridazin-3-ylmethyl)pyridine-3-carboxamide]	B (B = >33 to <66% inhibition)
CC(=O)N(CC1CC1)c1ccc(-c2ccc(C(=O)NCC3CC(F)(F)C3)cn2)cc1Cl [I-T2345, 6-[4-[acetyl(cyclopropylmethyl)amino]-3-chloro-phenyl]-N-[(3,3-difluorocyclobutyl)methyl]pyridine-3-carboxamide]	A (*A = <33% inhibition)
CC(=O)N(CC1CC1)c1ccc(-c2ccc(C(=O)NCCc3cccnc3)cn2)cc1C#N [I-T2305, 6-[4-[Acetyl(cyclopropylmethyl)amino]-3-cyano-phenyl]-N-[2-(3-pyridyl)ethyl]pyridine-3-carboxamide]	C (C = ≥66% inhibition)
CC(=O)N(CC1CC1)c1ccc(-c2ccc(C(=O)NCCN3CCCCC3)cn2)cc1Cl [I-T2339, 6-[4-[acetyl(cyclopropylmethyl)amino]-3-chloro-phenyl]-N-[2-(1-piperidyl)ethyl]pyridine-3-carboxamide]	A (*A = <33% inhibition)
